Experimental data published in US20240374739A1, “BILE ACID CONJUGATE” (Curtin University, priority 2021, published 2024).

What was measured:
[1] = tested on: Neurodegenerated cells (perinatal tissue derived human stem cell model for Parkinson's disease); assay: Mitochondrial membrane potential by TMRE assay, Parkinson's disease model; assay type: cell-based; details: PD model; probucol 20 μM, SPQ 10 μM, HA-1 10 μM, L-Dopa 50 μM, 24 hours
Experimental: (§1) Perinatal tissue derived human stem cell model for Parkinson's disease (PD) was prepared using proprietary protocols to test the effect of new drug entities. Drug treatment was for 24 hours in all the assays.
Dysfunctional mitochondria and alterations in the mitochondrial membrane potential promote neurodegeneration seen in Parkinson's disease. For assessing the changes in mitochondrial membrane potential, we used TMRE (tetramethylrhodamine ethyl ester) to quantify the changes in live cells by fluorimetry.
Neurodegenerated cells were incubated with probucol (20 μM), SPQ (10 μM), HA-1 (10 μM) and L-Dopa (50 μM) for 24 hours (p<0.05; *p<0.05, **p<0.001, ***p<0.0001, ns=non-significant, n=3).

[2] = tested on: Neurodegenerated cells (Parkinson's disease model); assay: Immunocytochemical localization of PD specific and neuronal markers; assay type: cell-based, human; details: fluorescence micrographs
Experimental: as §1
For further confirmation and protein localization of neuronal, dopaminergic and PD specific neurodegenerative markers, we performed immunolocalization for synapsin I, Nurr1, TH and α-synuclein respectively.
Fluorescence micrographs of synapsin 1 positive neuronal cells were obtained and the effects of probucol, SPQ and HA-1 on neurodegeneration model with L-Dopa as positive control were compared.
Fluorescence micrographs of Nurr1 positive dopaminergic neuronal cells were obtained and the effects of probucol, SPQ and HA-1 on neurodegeneration model with L-Dopa as positive control were compared.
Fluorescence micrographs of TH positive dopaminergic neuronal cells were obtained and the effects of probucol, SPQ and HA-1 on neurodegeneration model with L-Dopa as positive control were compared.
Fluorescence micrographs of α-synuclein immunolocalization were obtained and the effects of probucol, SPQ and HA-1 on neurodegeneration model with L-Dopa as positive control were compared.

[3] = target: T1, Acetylcholinesterase (AChE) (Homo sapiens, UniProt P22303); assay: Acetylcholinesterase (AChE) activity, Amplex Red reagent-based assay, Alzheimer's disease model; assay type: cell-based; details: probucol 20 μM, SPQ 10 μM, HA-1 10 μM, rivastigmine 2 μM, 24 hours
T1 construct: We assayed for AChE activity and ACh release in control, neurodegenerated AD and drug treated AD cells; endogenous in cells; host or cells: neurodegenerated cells of a human stem cell AD model derived from perinatal tissue (amniotic membrane mesenchymal stem cells are named for the MTT assay)
T1 sequence (P22303 32-614): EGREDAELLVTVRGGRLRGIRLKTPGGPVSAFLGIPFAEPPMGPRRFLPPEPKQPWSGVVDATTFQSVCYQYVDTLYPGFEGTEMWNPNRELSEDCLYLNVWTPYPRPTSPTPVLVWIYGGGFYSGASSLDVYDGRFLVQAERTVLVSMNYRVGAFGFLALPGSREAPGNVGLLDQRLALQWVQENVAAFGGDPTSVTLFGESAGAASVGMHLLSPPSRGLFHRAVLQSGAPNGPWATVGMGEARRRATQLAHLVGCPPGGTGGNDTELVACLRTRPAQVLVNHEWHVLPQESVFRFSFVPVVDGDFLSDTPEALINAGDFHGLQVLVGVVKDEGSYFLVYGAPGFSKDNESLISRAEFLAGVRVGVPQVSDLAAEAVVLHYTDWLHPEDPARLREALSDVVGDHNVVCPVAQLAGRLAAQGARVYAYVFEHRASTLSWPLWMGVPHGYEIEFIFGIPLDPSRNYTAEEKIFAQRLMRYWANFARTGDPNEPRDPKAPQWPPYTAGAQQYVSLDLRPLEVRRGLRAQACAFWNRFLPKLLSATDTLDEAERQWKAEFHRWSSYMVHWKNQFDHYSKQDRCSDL
Experimental: (§2) Perinatal tissue derived human stem cell model for Alzheimer's disease (AD) was prepared using proprietary protocols to test the effect of new drug entities. Drug treatment was for 24 h in all the assays.
(§3) Acetylcholinesterase (AChE) that regulates hydrolysis of acetylcholine (ACh) in the brain, is an important target for treatment of Alzheimer's disease (AD), a feature of which is ACh deficiency. We assayed for AChE activity and ACh release in control, neurodegenerated AD and drug treated AD cells.

[4] = tested on: Neurodegenerated cells (Parkinson's disease model); assay: ROS assay, Parkinson's disease model; assay type: cell-based, human; details: PD model
Experimental: as §1
(§4) Increase in oxidative stress associated with accumulation of α-synuclein plays a central role in disease progression. Nitric oxide enhances the aggregation of α-synuclein and accelerates disease progression. Increased oxidative stress and nitric oxide levels lead to apoptosis and evoke cytotoxic effects on neurons.

[5] = tested on: Neurodegenerated cells (Alzheimer's disease model); assay: Gene expression analysis by qRT-PCR for neuronal, cholinergic and AD associated markers; assay type: cell-based, human; details: 24 h drug treatment
Experimental: as §2
For determining the expression of genes involved in AD specific neurodegeneration and neuronal markers, we analysed BACE and chAT (AD and cholinergic markers) and synapsin 1 and neuropilin (neuronal markers).

[6] = tested on: Neurodegenerated cells (Parkinson's disease model); assay: Greiss (nitric oxide) assay, Parkinson's disease model; assay type: cell-based, human; details: PD model
Experimental: as §1, §4

[7] = tested on: Neurodegenerated cells (Parkinson's disease model); assay: Gene expression analysis by qRT-PCR for neuronal, dopaminergic and PD associated markers; assay type: cell-based, human; details: 24 hours drug treatment
Experimental: as §1
Gene expression levels of mature neuronal marker (Synapsin I), dopaminergic markers (Nuclear receptor related 1 (Nurr1), Dopamine transporter (DAT) and Tyrosine hydroxylase (TH)), and PD associated marker (α-synuclein) were analysed to determine the effect of probucol, SPQ, HA-1 and L-Dopa.
(A) Synapsin I, (B) Nurr1, (C) DAT, (D) TH and (E) α-synuclein. (p<0.05; *p<0.05, **p<0.001, ***p<0.0001, n=3).

[8] = tested on: Neurodegenerated cells (Alzheimer's disease model); assay: Acetylcholine (ACh) release, Amplex Red reagent-based assay, Alzheimer's disease model; assay type: cell-based, human; details: probucol 20 μM, SPQ 10 μM, HA-1 10 μM, rivastigmine 2 μM, 24 hours
Experimental: as §2, §3

[9] = tested on: Neurodegenerated cells (Alzheimer's disease model); assay: ROS (reactive oxygen species) assay, Alzheimer's disease model; assay type: cell-based, human; details: AD model
Experimental: as §2
(§5) Increase in oxidative stress is associated with accumulation of amyloid beta seen in the AD model. Increased oxidative stress and nitric oxide levels lead to apoptosis and evoke cytotoxic effects on neurons.

[10] = tested on: Neurodegenerated cells (Alzheimer's disease model); assay: Immunocytochemical localization of AD specific and neuronal markers; assay type: cell-based, human; details: fluorescence micrographs
Experimental: as §2
For further confirmation and protein localization of the AD specific neurodegenerative markers and neuronal markers, we performed immunolocalization for BACE1 and synapsin respectively.
Fluorescence micrographs of BACE1 positive neuronal cells were obtained and the effects of probucol, SPQ and HA-1 on neurodegeneration model were compared. […] In the AD model, as expected BACE1 accumulation is clearly pronounced.
In the case of synapsin 1, a disruption in expression of synapsin protein in ND cells was observed.

[11] = tested on: Neurodegenerated cells (perinatal tissue derived human stem cell model for Alzheimer's disease); assay: Lactate dehydrogenase (LDH) assay, in vitro model of Alzheimer's disease; assay type: cell-based; details: probucol 20 μM, SPQ 10 μM, HA-1 10 μM, rivastigmine 2 μM, 24 hours; compared to ND cells
Experimental: as §2
LDH leakage is a well characterised marker of cellular membrane damage and increase in indicative of lactate deficit, is a hallmark of AD.

[12] = tested on: Neurodegenerated cells (Alzheimer's disease model); assay: Greiss (nitric oxide) assay, Alzheimer's disease model; assay type: cell-based, human; details: AD model
Experimental: as §2, §5

[13] = tested on: Neurodegenerated cells (Parkinson's disease model); assay: Glutathione peroxidase / GSH activity, Parkinson's disease model; assay type: cell-based, human; details: PD model; vs neurodegeneration
Experimental: as §1
Parkinson's disease-related increase in oxidative stress is associated with mitochondrial dysfunction and subsequent decrease in the levels of brain antioxidant glutathione (GSH).
(Statistical analysis: Results are expressed in mean±SD. One-way ANOVA followed by Dunnett's post hoc test was performed to compare all columns vs neurodegeneration (p<0.05; *p<0.05, **p<0.001, ***p<0.0001, ns=non-significant, n=3).)

CC(C)(Sc1cc(C(C)(C)C)c(O)c(C(C)(C)C)c1)Sc1cc(C(C)(C)C)c(O)c(C(C)(C)C)c1 [probucol, 2,6-ditert-butyl-4-[2-(3,5-ditert-butyl-4-hydroxyphenyl)sulfanylpropan-2-ylsulfanyl]phenol]
mitochondrial membrane potential (TMRE) [1]: maintain the mitochondrial membrane potential
Nurr1 (immunolocalization) [2]: more pronounced
TH (immunolocalization) [2]: more pronounced
synapsin protein expression (immunolocalization) [2]: clear restoration of synapsin expression
Acetylcholinesterase (AChE) activity [3]: inhibition of acetylcholinesterase (AChE) similar to rivastigmine
intracellular reactive oxidative stress (ROS) [4]: decrease the level of ROS
BACE1 gene expression (qRT-PCR) [5]: decrease the level of beta secretase 1 (BACE1)
ChAT gene expression (qRT-PCR) [5]: increase the level of choline acetyltransferase (ChAT)
neuropilin gene expression (qRT-PCR) [5]: increased
synapsin 1 (Syn) gene expression (qRT-PCR) [5]: increased
nitric oxide level [6]: prevent the reduction of endogenous nitric oxide levels
TH gene expression (qRT-PCR) [7]: clearly upregulated
α-synuclein gene expression (qRT-PCR) [7]: decreased expression of α-synuclein
Acetylcholine (ACh) release / level [8]: increase/maintain the level of acetylcholine (ACh)
intracellular reactive oxidative stress (ROS) [9]: decrease the level of ROS
synapsin 1 protein expression (immunolocalization) [10]: clear reversal of degeneration
LDH activity / LDH release [11]: decreased significantly LDH activity
nitric oxide level [12]: prevent the reduction of endogenous nitric oxide level
glutathione (GSH) activity [13]: increase in the GSH activity
